Measurements from ChEMBL document CHEMBL1201862, “PubChem BioAssay data set” (2004).
Activity calls are given as the source filed them.

Key:
[1] = test system: Escherichia coli; assay: microbe, parasite or virus in culture
[2] = molecular target: T1, Ubiquitin-conjugating enzyme E2 N (Homo sapiens, UniProt P61088); format: functional;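 note: Dose-response confirmation in a TR-FRET assay detecting UBC13-driven polyubiquitin chain formation, inhibition measured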
T1 sequence (P61088 whole entry): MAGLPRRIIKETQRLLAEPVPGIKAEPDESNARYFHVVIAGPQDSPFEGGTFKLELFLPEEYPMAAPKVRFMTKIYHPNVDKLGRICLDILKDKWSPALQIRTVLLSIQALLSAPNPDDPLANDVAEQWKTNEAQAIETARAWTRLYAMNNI

[3] = test system: Vero; assay: cells; format: functional; conditions: Chlorocebus sabaeus
[4] = molecular target: Dual specificity tyrosine-phosphorylation-regulated kinase 1A (Rattus norvegicus, UniProt Q63470); format: biochemical, Homo sapiens
[5] = NIH-3T3 fibroblast cytotoxicity, dose response, cytotoxicity control, cell-based, fluorescence, Alamar Blue, secondary assay (AID 2327); format: functional;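 note: NIH-3T3 mouse fibroblasts cultured with fluconazole at 8 µg/mL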
[6] = fluconazole-exposed Candida albicans growth modulators – fluorescence, retest, confirmation (AID 2467); format: functional, cell-based
[7] = microbe, parasite or virus in culture; format: functional; conditions: Mycobacterium tuberculosis
[8] = molecular target: Delta-type opioid receptor (Homo sapiens, UniProt P41143); assay: Counterscreen for agonists of heterodimerization of the mu 1 (OPRM1) and delta 1 (OPRD1) opioid receptors: Luminescence-based cell-based high throughput dose response assay to identify agonists of OPRD1 homodimerization. [Related pubchem assays (depositor defined):AID504326, AID504355, AID504692, AID504904, AID504905]; format: functional
Sequence of Delta-type opioid receptor (P41143 whole entry): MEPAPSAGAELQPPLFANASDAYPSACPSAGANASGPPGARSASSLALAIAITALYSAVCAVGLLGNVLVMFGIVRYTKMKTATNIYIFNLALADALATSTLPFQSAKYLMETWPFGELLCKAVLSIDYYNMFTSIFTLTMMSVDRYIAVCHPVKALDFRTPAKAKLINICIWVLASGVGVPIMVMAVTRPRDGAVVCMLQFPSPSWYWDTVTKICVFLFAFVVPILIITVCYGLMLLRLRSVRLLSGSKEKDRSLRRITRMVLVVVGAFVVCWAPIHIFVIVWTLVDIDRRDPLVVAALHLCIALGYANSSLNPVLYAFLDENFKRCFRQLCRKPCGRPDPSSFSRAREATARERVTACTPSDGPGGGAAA

[9] = molecular target: Mu-type opioid receptor (Homo sapiens, UniProt P35372); assay: Counterscreen for agonists of heterodimerization of the mu 1 (OPRM1) and delta 1 (OPRD1) opioid receptors: Luminescence-based cell-based high throughput dose response assay to identify agonists of OPRM1 homodimerization.; format: functional;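 note: U2OS cells expressing OPRM1 and beta-arrestin as split beta-galactosidase partners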
Sequence of Mu-type opioid receptor (P35372 whole entry): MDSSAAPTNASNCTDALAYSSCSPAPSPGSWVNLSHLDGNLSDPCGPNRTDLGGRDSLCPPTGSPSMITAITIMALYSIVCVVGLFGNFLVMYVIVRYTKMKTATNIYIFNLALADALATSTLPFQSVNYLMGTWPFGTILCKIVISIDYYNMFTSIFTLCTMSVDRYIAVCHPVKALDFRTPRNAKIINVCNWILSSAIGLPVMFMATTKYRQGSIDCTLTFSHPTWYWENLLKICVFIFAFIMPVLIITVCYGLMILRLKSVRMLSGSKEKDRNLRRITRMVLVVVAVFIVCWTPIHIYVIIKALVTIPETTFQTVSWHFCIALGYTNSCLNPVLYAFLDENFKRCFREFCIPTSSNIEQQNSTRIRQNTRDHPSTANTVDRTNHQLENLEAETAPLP

[10] = molecular target: 5-hydroxytryptamine receptor 5A (Homo sapiens, UniProt P47898); assay: Counterscreen for agonists of OPRM1-OPRD1 heterodimerization: luminescence-based cell-based high throughput dose response assay to identify agonists of 5-hydroxytryptamine (serotonin) 5A receptor (HTR5A). [Related pubchem assays (depositor defined):AID504326, AID504355, AID504692, AID504904, AID504905]; format: functional
Sequence of 5-hydroxytryptamine receptor 5A (P47898 whole entry): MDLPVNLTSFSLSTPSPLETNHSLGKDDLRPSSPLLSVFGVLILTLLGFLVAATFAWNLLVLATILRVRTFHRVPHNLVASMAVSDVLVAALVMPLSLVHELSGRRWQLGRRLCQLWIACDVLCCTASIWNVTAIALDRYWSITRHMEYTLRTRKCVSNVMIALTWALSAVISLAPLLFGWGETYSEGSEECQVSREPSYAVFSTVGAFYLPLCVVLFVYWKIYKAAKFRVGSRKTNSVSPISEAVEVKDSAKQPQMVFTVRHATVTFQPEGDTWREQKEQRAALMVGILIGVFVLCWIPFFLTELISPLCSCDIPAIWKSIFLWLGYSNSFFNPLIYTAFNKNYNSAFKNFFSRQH

[11] = luciferase reporter signal suppression in cells – H4 neuroglioma cells, luminescence, dose response (AID 1990); format: functional, cell-based
[12] = test system: BJ; assay: BJ-TERT fibroblast viability loss – cell-based, RAS-independent, luminescence, dose response (AID 1933); format: functional; conditions: Homo sapiens
[13] = Luminescence Cell-Based Dose Response HTS to Identify Inhibitors of 5'UTR Stem-Loop Driven Prion Protein mRNA Translation in H4 Neuroglioblastoma Cells. [Related pubchem assays: 1827 (Project Summary), 1813 (Primary HTS)]; format: functional
[14] = alpha-synuclein stem-loop luciferase translation blockers – H4 neuroglioma cells, luminescence, confirmation (AID 1988); format: functional, cell-based
[15] = test system: BJ; assay: cells; format: functional, cell-based; conditions: Homo sapiens
[16] = test system: BJ; assay: BJ-TERT-LT-ST fibroblast viability loss – cell-based, RAS-independent, luminescence, dose response (AID 1935); format: functional; conditions: Homo sapiens;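 note: BJ fibroblasts immortalized with TERT plus LT and ST oncogenes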
[17] = DRD fibroblast viability loss – cell-based, non-viral oncogenic, luminescence, dose response (AID 1934); format: functional; conditions: Homo sapiens
[18] = test system: BJ; assay: growth inhibition of engineered Ras-driven BJ cells – cell-based, alamar blue fluorescence, cherrypicked samples, dose response (AID 2631); format: functional; conditions: Homo sapiens;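 note: confirmatory dose-response assay in RAS-dependent BJ fibroblasts engineered with TERT, LT and ST, with cytotoxicity read by fluorescence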
[19] = test system: INS1; assay: INS-1E survival protection against cytokine death – cell-based, luminescence, retest, dose response (AID 449756); format: functional; conditions: Rattus norvegicus;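 note: cell death triggered by IL-1 beta plus TNF-alpha plus IFN-gamma mixture; protective hits raise ATP signal compared with cytokine alone wells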
[20] = reduced cellular PGC1a acetyl-lysine signal – cell-based, cherry-picked samples, dose response (AID 720514); format: functional;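 note: potency may reflect raised or lowered acetylation signal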
[21] = molecular target: T2, Short transient receptor potential channel 4 (Mus musculus, UniProt Q9QUQ5); assay: calcium entry via TRPC4 opening agents – cell-based, HEK293 TRPC4/mu-opioid, Fluo-4 calcium, dose response (AID 434937); format: functional
T2 sequence (Q9QUQ5 whole entry): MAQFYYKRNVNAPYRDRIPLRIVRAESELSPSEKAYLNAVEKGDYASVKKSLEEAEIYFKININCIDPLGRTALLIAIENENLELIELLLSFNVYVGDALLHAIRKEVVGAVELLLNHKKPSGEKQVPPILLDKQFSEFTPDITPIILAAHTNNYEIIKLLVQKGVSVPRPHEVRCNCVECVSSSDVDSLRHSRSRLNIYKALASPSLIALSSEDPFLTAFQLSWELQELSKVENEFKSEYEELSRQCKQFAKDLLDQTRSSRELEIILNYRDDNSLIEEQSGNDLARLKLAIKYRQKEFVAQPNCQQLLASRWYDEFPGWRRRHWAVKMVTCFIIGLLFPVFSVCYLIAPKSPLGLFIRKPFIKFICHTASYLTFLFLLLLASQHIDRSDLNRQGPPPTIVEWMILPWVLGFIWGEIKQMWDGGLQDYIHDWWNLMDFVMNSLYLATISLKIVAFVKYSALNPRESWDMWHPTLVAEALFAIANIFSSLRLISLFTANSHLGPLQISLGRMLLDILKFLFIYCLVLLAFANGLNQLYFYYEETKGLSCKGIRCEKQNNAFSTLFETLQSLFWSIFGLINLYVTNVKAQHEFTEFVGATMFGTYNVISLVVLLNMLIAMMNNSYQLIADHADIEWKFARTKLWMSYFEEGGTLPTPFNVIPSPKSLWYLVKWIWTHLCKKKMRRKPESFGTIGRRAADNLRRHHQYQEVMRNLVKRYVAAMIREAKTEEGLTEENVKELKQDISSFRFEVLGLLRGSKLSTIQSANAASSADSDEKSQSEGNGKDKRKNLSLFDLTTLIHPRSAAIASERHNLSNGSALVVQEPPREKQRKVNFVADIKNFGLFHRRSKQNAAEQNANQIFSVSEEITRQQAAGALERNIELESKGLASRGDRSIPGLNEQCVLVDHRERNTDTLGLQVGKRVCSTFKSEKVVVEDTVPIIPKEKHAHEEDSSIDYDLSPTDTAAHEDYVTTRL

[22] = molecular target: Heat shock protein HSP 90-alpha (Homo sapiens, UniProt P07900); format: functional, organism-based
[23] = test system: Vero; assay: viability of Vero cells under compound – cytotoxicity control for flavivirus capping enzyme inhibitors (AID 588742); format: functional; conditions: Chlorocebus sabaeus
[24] = molecular target: T3, Polyadenylate-binding protein 1 (Homo sapiens, UniProt P11940); assay: MLLE binding blockers, Cy5 peptide tracer – biochemical, fluorescence polarization, Cy5-PAM2 peptide, secondary, miRNA deadenylation inhibitor project, dose response (AID 602260); format: functional; conditions: read-out: IC50_Mean
T3 sequence (P11940 whole entry, the tested form may be a part): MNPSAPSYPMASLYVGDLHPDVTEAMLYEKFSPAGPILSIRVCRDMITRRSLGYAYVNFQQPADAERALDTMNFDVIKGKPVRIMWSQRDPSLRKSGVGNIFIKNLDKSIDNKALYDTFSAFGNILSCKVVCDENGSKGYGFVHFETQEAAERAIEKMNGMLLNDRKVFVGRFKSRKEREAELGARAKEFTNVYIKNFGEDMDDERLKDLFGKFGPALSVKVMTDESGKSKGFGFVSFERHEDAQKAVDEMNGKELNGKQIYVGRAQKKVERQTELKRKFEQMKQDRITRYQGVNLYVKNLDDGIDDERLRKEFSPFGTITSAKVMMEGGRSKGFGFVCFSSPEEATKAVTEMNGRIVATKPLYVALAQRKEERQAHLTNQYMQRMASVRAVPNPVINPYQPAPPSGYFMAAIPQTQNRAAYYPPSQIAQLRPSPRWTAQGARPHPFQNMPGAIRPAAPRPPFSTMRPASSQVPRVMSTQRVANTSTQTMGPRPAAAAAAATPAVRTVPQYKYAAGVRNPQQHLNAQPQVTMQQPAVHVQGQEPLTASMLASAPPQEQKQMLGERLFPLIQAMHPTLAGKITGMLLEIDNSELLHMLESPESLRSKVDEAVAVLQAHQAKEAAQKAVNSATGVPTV

[25] = molecular target: T3, Polyadenylate-binding protein 1; assay: MLLE domain peptide-binding blockers, IC50 – biochemical, fluorescence polarization, FITC-PAM2 peptide, dose response (AID 602259); format: functional; conditions: read-out: IC50_Mean

## O=C(Cn1ccc(C(F)(F)F)n1)Nc1ccc(S(=O)(=O)NCc2ccco2)cc1
[1]
  AC50: 38.6 µM (active)

## Cc1cccc(Nc2cc(C)c3c(O)cccc3n2)c1C
[2]
  IC50: > 20 µM (inactive)
[3]
  CC50: > 25 µM (active)
[4]
  AC50: 1.13 µM (active)

## Cn1c(-c2c(N)n(CCc3ccccc3)c3nc4ccccc4nc23)nc2ccccc21
[5]
  EC50: > 160 µM (inactive)
[6]
  EC50: > 38 µM (not active)
[7]
  CC50: > 40 µM (active)
[8]
  EC50: > 92.5 µM (inactive)
[9]
  EC50: 24.8 µM (inactive)
[10]
  EC50: > 92.5 µM (inactive)

## CNC[C@@H](Cc1ccccc1)NC[C@@H](CC1CCCCC1)NCCCc1ccccc1
[5]
  EC50: 4.94 µM (inconclusive)
[11]
  EC50: 7.68 µM (active)
[12]
  EC50: 5 µM (active)
[13]
  EC50: > 120 µM (not active)
[14]
  EC50: 4.29 µM (active)
[15]
  EC50: 5.13 µM (inconclusive)
[6]
  EC50: > 38 µM (not active)
[7]
  CC50: 5.76 µM (active)
[16]
  EC50: 5.72 µM (inconclusive)
[17]
  EC50: 5.08 µM (active)
[2]
  IC50: > 20 µM (inactive)
[18]
  EC50: 0.532 µM (inconclusive)
[19]
  AC50: 6.49 µM (active)
[20]
  AC50: 5.06 µM (active)

## CN(C)C(CNC(=O)Cc1ccc(Br)cc1)c1ccccc1 (centres undefined)
[21]
  EC50: 0.105 µM (active)
[8]
  EC50: 36.1 µM (inactive)
[9]
  EC50: > 92.5 µM (inactive)
[10]
  EC50: > 92.5 µM (inactive)

## COc1ccc2c3c(ccc2c1)C(O)=C(C=O)CC3
[22]
  AC50: 2.94 µM (active)
[23]
  CC50: > 40 µM (active)
[4]
  AC50: 0.633 µM (active)
[24]
  IC50: > 66 µM (inactive)
[25]
  IC50: > 66 µM (inactive)

## COc1ccc(S(=O)(=O)N2CCC(C(N)=O)CC2)cc1
[1]
  AC50: 38.3 µM (active)
